Results on 15 compounds are retold here after EP0414894A1 (priority 1989, dated 1990).

For series [1], the system named is domestic flies. Kind of series: insecticidal activity, full-scale (large-scale) test in premises. The format is in vivo. The note with it: 2% solution, 2-3 dishes per 20 m²; 72 hours. As to the method: The full-scale tests for activity of the insecticidal composition of the invention to domestic flies in habitable and industrial premises were carried out as follows. The Petri dishes containing a 2% solution of the insecticidal composition of the invention were located according 2-3-dishes per 20 m². The composition activity was evaluated by a direct estimation of killed insects in 72 hours or by using an adhesive tape to count the number of flies on its surface prior to and after conducting the test.

For series [2], the system named is domestic flies. In words: insecticidal activity, laboratory test in gauze boxes. The format is in vivo. The note with it: 2% solution in 5% aqueous glucose; observed in 48-72 hours. The procedure: The compound obtained was used for preparing an insecticidal composition which was a 2% solution of the compound in a 5% aqueous solution of glucose. The test for activity of the insecticidal composition of the invention was conducted on domestic flies. Into gause 10x10 cm boxes /6 boxes/ 6-7-day flies were placed in the number of 50 individuals per box, which were of both sexes. The Petri dishes containing the insecticidal composition of the invention were put into 5 boxes. The observations for fly death were carried out in 48-72 hours. The Petri dish containing a 5% aqueous glucose solution were placed into a control box.

The subject of series [3] is Hepatitis B virus. Kind of series: virulicidal activity, HBsAg titer in blood serum. The text has this:
table ratio instead of the test composition.

Series [4] has as its system Influenza A viruses. In words: virulicidal activity, virus titer in allantoic fluid by hemagglutination-inhibition.
Series [5] has as its system Meningopneumonia virus. More on the design: species or system meningopneumonia pathogene/MP strain/.
For series [6], the system named is Escherichia coli. Kind of series: microbe, parasite or virus in culture. The format is cell-based. The settings on record: for killing at 0.2 %: Escherichia coli, read-out: Death of micro-organisms, % E.coli.
Series [7] concerns poliomyelitis virus.
Series [8] deals with Staphylococcus aureus. Kind of series: microbe, parasite or virus in culture. The format is cell-based. The settings on record: for killing at 0.2 %: Staphylococcus aureus, read-out: Death of micro-organisms, % S.aureus.
Where [9] appears, read: concentration 1.0 % by mass, 30 min.
Setting [10] is: concentration 1.0 % by mass, 60 min.
Where [11] appears, read: concentration 2.0 % by mass, 30 min.
[12] abbreviates: concentration 2.0 % by mass, 60 min.

Where “and” joins values, the source holds several entries; their conditions need not be identical. Equal entries are not always repeated. Where two headings read alike, the source gives them in different places.

For `CC(C)OP(=NC(CO)C(O)c1ccc([N+](=O)[O-])cc1)(OC(C)C)OC(C)C` (stereo not drawn) [Example 3, triisopropoxyphosphazo-1-para-nitrophenyl-1,3-propandiol], the “Death of flies, % Tests in large-scale” value in series [1] is reported as 80.0%. The “Death of flies, % Tests in laboratory” value in series [2] was found to be 82.0%.
Regarding `O=[N+]([O-])c1ccc(C(O)C(CO)N=P(OC(CCl)c2ccccc2)(OC(CCl)c2ccccc2)OC(CCl)c2ccccc2)cc1` (stereo not drawn) [Example 4, tris/2-chloro-1-phenylethoxy/phosphazo-1-para-nitrophenyl-1,3-propandiol], the “Death of flies, % Tests in large-scale” value in series [1] is given as 75.0%. Further, the “Death of flies, % Tests in laboratory” value in series [2] is given as 73.4%.
Take `CC(C)OP(=NC(CCl)C(O)c1ccc([N+](=O)[O-])cc1)(OC(C)C)OC(C)C` (stereo not drawn) [Example 6, tri-isopropoxyphosphazo-1-para-nitrophenyl-1-chloro-3-propanol]: the “Virulicidal activity (%) under exposure 30 min” value in series [3] (concentration 1.0 % by mass) is 100.0%; in series [3] (concentration 2.0 % by mass), 100,0%; in series [4] (concentration 1.0 % by mass) it was 75.0%; in series [4] (concentration 2.0 % by mass), 93.8%; in series [5], 99.0% and 100.0%. Further, the “Virulicidal activity (%) under exposure 60 min” value in series [3] (concentration 1.0 % by mass) was 100.0%; in series [3] (concentration 2.0 % by mass), 100,0%; in series [4] (concentration 1.0 % by mass), 98.0%; in series [4] (concentration 2.0 % by mass), 100.0%; in series [5], 100.0%. Also, the “Death of flies, % Tests in large-scale” value in series [1] worked out at 89.0%. Moreover, the “Death of flies, % Tests in laboratory” value in series [2] stood at 90.9%.
As for `CCCCOP(=NC(CCl)C(O)c1ccc([N+](=O)[O-])cc1)(OCCCC)OCCCC` (stereo not drawn) [Example 7, tri-n-butoxyphosphazo-1-paranitrophenyl-1-chloro-3-propanol], in series [1], the “Death of flies, % Tests in large-scale” value came to 96.8%. The “Death of flies, % Tests in laboratory” value in series [2] was found to be 96.0%.
Taken in the same sequence, the figures for `O=[N+]([O-])c1ccc(C(O)C(CCl)N=P(OC(CCl)c2ccccc2)(OC(CCl)c2ccccc2)OC(CCl)c2ccccc2)cc1` (stereo not drawn) [Example 8, tris/2-chlorol-phenylethoxy/-phosphazo-1-paranitrophenyl-1-chloro-3-propanol] were 84.0% and 84.3%.
On to `CCCOP(=NC(CCl)C(Cl)c1ccc([N+](=O)[O-])cc1)(OCCC)OCCC` (stereo not drawn) [Example 11, tri-n-propoxyphosphazo-1-para-nitrophenyl-1,3-dichloropropane], for which the “Death of flies, % Tests in large-scale” value in series [1] is recorded as 89.0%. In addition, in series [2], the “Death of flies, % Tests in laboratory” value was determined as 89.0%.
For `CC(C)OP(=NC(CCl)C(Cl)c1ccc([N+](=O)[O-])cc1)(OC(C)C)OC(C)C` (stereo not drawn) [Example 12, triisopropoxyphosphazo-1-paranitrophenyl], in series [1], the “Death of flies, % Tests in large-scale” value is 90.0%. Moreover, the “Death of flies, % Tests in laboratory” value in series [2] is recorded as 92.0%.
As to `CCCCOP(=NC(CCl)C(Cl)c1ccc([N+](=O)[O-])cc1)(OCCCC)OCCCC` (stereo not drawn) [Example 13, tri-n-butoxyphosphazo-1-para-nitrophenyl-1,3-dichloropropane], the “Virulicidal activity (%) under exposure 30 min” value was 75.0% in series [3] (concentration 1.0 % by mass); 100,0% in series [3] (concentration 2.0 % by mass); 50.0% in series [4] (concentration 1.0 % by mass); 93.8% in series [4] (concentration 2.0 % by mass); 75.0% and 99.0% in series [5]. The “Virulicidal activity (%) under exposure 60 min” value in series [3] (concentration 1.0 % by mass) was 100.0%; in series [3] (concentration 2.0 % by mass) it was 100,0%; in series [4] (concentration 1.0 % by mass), 75.0%; in series [4] (concentration 2.0 % by mass), 100.0%; in series [5], 100.0%. In series [1], the “Death of flies, % Tests in large-scale” value amounted to 91.0%. In addition, the “Death of flies, % Tests in laboratory” value in series [2] was 92.0%.
For `O=[N+]([O-])c1ccc(C(Cl)C(CCl)N=P(OC(CCl)c2ccccc2)(OC(CCl)c2ccccc2)OC(CCl)c2ccccc2)cc1` (stereo not drawn) [Example 14, tris-/2-chloro-1-phenoxy/phosphazo-1-para-nitrophenyl-1,3-dichloropropane], the “Virulicidal activity (%) under exposure 30 min” value is 100.0% in series [3] (concentration 1.0 % by mass); 100,0% in series [3] (concentration 2.0 % by mass); 75.0% in series [4] (concentration 1.0 % by mass); 93.8% in series [4] (concentration 2.0 % by mass); 50.0% and 90.0% in series [5]. For the same compound, the “Virulicidal activity (%) under exposure 60 min” value in series [3] (concentration 1.0 % by mass) is 100.0%; in series [3] (concentration 2.0 % by mass), 100,0%; in series [4] (concentration 1.0 % by mass), 93.8%; in series [4] (concentration 2.0 % by mass) it was 100.0%; in series [5], 75.0% and 100.0%. For the same compound, the “Death of flies, % Tests in large-scale” value in series [1] was 70.0%. In series [2], the “Death of flies, % Tests in laboratory” value worked out at 71.3%.
Consider `O=[N+]([O-])c1ccc(C(O)C(CO)N=P(Oc2ccccc2)(Oc2ccccc2)Oc2ccccc2)cc1` (stereo not drawn) [Example 21, triphenoxyphosphazo-1-para-nitrophenyl-1,3-propanol], for which the “Virulicidal activity (%) under exposure 30 min” value in series [3] (concentration 1.0 % by mass) is given as 50.0%; in series [3] (concentration 2.0 % by mass) it was 100,0%; in series [4] (concentration 1.0 % by mass) it was 87.5%. Further, the “Virulicidal activity (%) under exposure 60 min” value in series [3] (concentration 1.0 % by mass) was 87.5%; in series [3] (concentration 2.0 % by mass), 100,0%; in series [4] (concentration 1.0 % by mass) it was 100.0%.
As for `O=[N+]([O-])c1ccc(C(O)C(CO)N=P(Cl)(Oc2ccccc2)Oc2ccccc2)cc1` (stereo not drawn) [Example 36, diphenoxychlorophosphazo-1-nitrophenyl-1,3-dihydroxypropyl], the “Death of micro-organisms, % E.coli” value in series [6] was 100.0%. Moreover, in series [7], the “Virulicidal activity (%) to poliomyelitis virus under exposure of 30 min” value (“Virulicidal activity (%) … of 30 min” for short) was 50.0% and 90.0%; the “Virulicidal activity (%) to poliomyelitis virus under exposure of 60 min” value (shortened to “Virulicidal activity (%) … of 60 min”) is 80.0% and 90.0%. Further, the “Death of micro-organisms, % S.aureus” value in series [8] was found to be 90.0%.
Turning to `O=[N+]([O-])c1ccc(C(O)C(CO)N=P(Cl)(Oc2ccc(Cl)cc2)Oc2ccc(Cl)cc2)cc1` (stereo not drawn) [Example 37, di-para-chlorophenoxychlorophosphazo-1-para-nitrophenyl-1,3-dihydroxyisopropyl], the “Death of micro-organisms, % E.coli” value in series [6] is 100.0%. In addition, in series [7], the “Virulicidal activity (%) … of 30 min” value was 60.0% and 90.0%; the “Virulicidal activity (%) … of 60 min” value is 90.0% and 100.0%. Further, in series [8], the “Death of micro-organisms, % S.aureus” value came to 100.0%.
In the case of `O=[N+]([O-])c1ccc(C(O)C(CO)N=P(Cl)(Cl)Oc2ccc(Cl)cc2)cc1` (stereo not drawn) [Example 39, para-chlorophenoxydichlorophosphazo-1-para-nitrophenyl-1,3-dihydroxyisopropyl], the “Death of micro-organisms, % E.coli” value in series [6] stood at 100.0%. In addition, in series [7], the “Virulicidal activity (%) … of 30 min” value is 70.0% and 95.0%; the “Virulicidal activity (%) … of 60 min” value is 90.0% and 100.0%. The “Death of micro-organisms, % S.aureus” value in series [8] amounted to 100.0%.
For `Cc1ccc(OP(=NC(CO)C(O)c2ccc([N+](=O)[O-])cc2)(Oc2ccc(C)cc2)Oc2ccc(C)cc2)cc1` (stereo not drawn) [Example 40, tri-para-methylphenoxy-1-para-nitrophenyl-1,3-dihydroxyisopropyl], the killing at 0.2 % worked out at 90% in series [6] and 70% in series [8]. For the same compound, the “Virulicidal activity (%) … of 30 min” value in series [7] (setting [9]) is on record as 50.0%; in series [7] (setting [11]), 80.0%. For the same compound, the “Virulicidal activity (%) … of 60 min” value in series [7] (setting [10]) is recorded as 70.0%; in series [7] (setting [12]) it was 90.0%.
With `O=[N+]([O-])c1ccc(C(O)C(CO)N=P(Oc2ccc(Cl)cc2)(Oc2ccc(Cl)cc2)Oc2ccc(Cl)cc2)cc1` (stereo not drawn) [Example 41, tri-para-chlorophenoxyphosphazo-1-para-nitrophenyl-1,3-dihydroxyisopropyl], the killing at 0.2 % in series [6] was 100%; in series [8], 90%. In addition, the results for the “Virulicidal activity (%) … of 30 min” value in series [7] (setting [9]) and in series [7] (setting [11]) were 50.0% and 90.0%, respectively. Further, the “Virulicidal activity (%) … of 60 min” value stood at 80.0% in series [7] (setting [10]) and 100.0% in series [7] (setting [12]).
